In patent US7834024B2, “Compositions and methods for inhibition of the JAK pathway” (Rigel Pharmaceuticals, Inc., priority 2007, dated 2010):
Read-outs that look alike come from different tables or passages of the source.

What was measured:
[1] = system: Ramos B-Cell Line Stimulated with IL-4 (JAK-1 and JAK-3 / Stat-6, CD23); assay: Assay for Ramos B-Cell Line Stimulated with IL-4 (CD23 upregulation, FACS); assay type: cell-based; conditions: human Ramos B cells, compound 1 hour, IL-4 50 units/mL for 20-24 hours, anti-CD23-PE FACS, read-out: Example 2 (IC50)
Method in brief: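 Human Ramos B cells (5×10^4 per point, RPMI with 5% serum) pre-incubated 1 hour at 37° C with compound or DMSO, then stimulated with IL-4 at 50 units/mL final for 20-24 hours. CD23 upregulation measured by flow cytometry.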

[2] = system: JAK2 (BaF3 V617F cells, UKE-1); assay: Proliferation Assay (Cell Titer-Glo, 72 hours); assay type: cell-based; conditions: proliferation 72 hours, BaF3 V617F or UKE-1 cells, cell line not given, read-out: Example 7 (IC50)
Description: • Dimethyl Sulfoxide (DMSO) (Sigma-Aldrich, Cat No. D2650) (Control) • Iscove's DMEM, ATCC Catalog #30-2005 • 1 M HEPES, Cellgro Catalog #25-060-Cl (100 mL) • 100 mM Sodium Pyruvate, Cellgro Catalog #25-000-Cl (100 mL) • Penicillin/Streptomycin, 10000 U/mL each, Cellgro Catalog #30-002-Cl (100 mL) • RPMI 1640 (Cellgro, Cat No. 10-040-CM) • Fetal Bovine Serum (JRH, Cat No. 12106-500M) • Donor Equine Serum, Hyclone Catalog #SH30074.02 (100 mL) • 50 μM hydrocortisone solution, Sigma Catalog #H6909-10 ml (10 mL) Culture Conditions
BaF3 V617F cells are maintained and plated in RPMI with 10% FBS. Plating density for these cells is 1×10^5 cells/mL.
UKE-1 are maintained and plated in Iscove's DMEM containing 10% FBS, 10% equine serum, 1% penicillin/streptomycin and 1 uM hydrocortisone. Plating density for these cells is 0.4×10^6 cells/mL
The cells were resuspended in a corresponding medium at a required cell density (see above). 100 μ of cell suspension was added to each well of a flat bottom 96 well white plate. The compound was serially diluted in DMSO from 5 mM in 3-fold dilutions, and then diluted 1:250 in the RPMI 1640 medium containing 5% FBS and pen/strep. 100 μL of resulting 2× compound solution was added per well in duplicate and the cells were allowed to proliferate for 72 hours at 37° C.
Proliferation was measured using Cell Titer-Glo. The substrate was thawed and allowed to come to room temperature. After removal of top 100 μL of medium from each well, 100 μL of the premixed Cell Titer-Glo reagent was added to each well. The plates were mixed on an orbital shaker for three minutes to induce lysis and incubated at ambient temperature for an additional five minutes to allow the signal to equilibrate. The Luminescence was read on the Wallac Plate Reader.
The results of the ability of the compounds of the invention to inhibit JAK2 activity, when tested in the above assay, are shown in the following Table IX wherein the level of activity (i.e. the IC50) for each compound is indicated in Table IX. Thae compound numbers in Table IX Refers to the compound disclosed herein as being preparded hy the methods disclosed herein: […]

IC50 ([1]; Homo sapiens, Ramos)	IC50 [2]	IC50 [1]	Molecule
162 nM	550 nM		Cc1cnc(Nc2cccc(C(N)=O)c2)nc1Nc1ccc2c(c1)N(C)C(=O)C(C)(C)O2 [II-39, N2-(3-Aminocarbonylphenyl)-5-methyl N4-(2,2,4-trimethyl-3-oxo-benz[1,4]oxazin-6-yl)-2,4-pyrimidinediamine]
	653 nM	25.1 nM	CNC(=O)COc1cc(Nc2ncc(F)c(Nc3ccc4c(c3)NC(=O)C(C)(C)O4)n2)cc(OC)c1OC [II-18, N2-[4,5-Dimethoxy-3-(N-methylaminocarbonylmethyleneoxy)phenyl]-N4-(2,2-dimethyl-3-oxo-benzo[1,4]oxazin-6-yl)-5-fluoro-2,4-pyrimidinediamine]
116 nM	980 nM		Cc1cnc(Nc2cccc(C#N)c2)nc1Nc1ccc2c(c1)N(C)C(=O)CO2 [II-10, N2-(3-Cyanophenyl)-5-methyl-N4-(4-methyl-3-oxo-2H-benzo[1,4]oxazin-6-yl)-2,4-pyrimidinediamine]
	2150 nM	231 nM	5-Methyl-N2-(I-oxo-1,2,3,4-tetrahydroisoquinolin-7-yl)-N4-[3-oxo-2,2,4-trimethyl-5-pyrido[1,4]oxazin-6-yl]-2,4-pyrimidinediamine [IV-3]
748 nM	4120 nM		CN1C(=O)C(C)(C)Oc2ccc(Nc3nc(Nc4ccc5c(c4)C(=O)NCC5)ncc3F)nc21 [IV-2, 5-Fluoro-N2-(1-oxo-1,2,3,4-tetrahydroisoquinolin-7-yl)-N4-[3-oxo-2,2,4-trimethyl-5-pyrido[1,4]oxazin-6-yl]-2,4-pyrimidinediamine]
3.4 nM	388 nM		CN1CCN(c2ccc(Nc3ncc(F)c(Nc4ccc(OCC#N)cc4)n3)cc2C#N)CC1 [Compound I-41, N4-(4-Cyanomethoxyphenyl)-N2-[3-cyano-4-(4-methylpiperazin-1-yl)phenyl]-5-fluoro-2,4-pyrimidinediamine]
62.3 nM	1260 nM		CN1CCN(C(=O)c2ccc(Nc3ncc(F)c(Nc4ccc(OCC#N)cc4)n3)cc2)CC1 [Compound I-31, N4-(4-Cyanomethoxyphenyl)-5-fluoro-N2-[4-((4-methylpiperazin-1-yl)carbonyl)phenyl]-2,4-pyrimidinediamine]
	16400 nM	98 nM	CNC(=O)COc1cccc(Nc2ncc(C)c(Nc3ccc4c(c3)NC(=O)C(F)(F)O4)n2)c1 [II-49, N4-(2,2-Difluoro-3-oxo[4H]benzo[1,4]oxazin-6-yl)-5-methyl-N2-[3-(N-Methylaminocarbonylmethyleneoxy)phenyl]-2,4-pyrimidinediamine]
	1090 nM	89.6 nM	CNC(=O)COc1cc(Nc2ncc(F)c(Nc3ccc4c(n3)NCC(C)(C)O4)n2)ccc1OC [II-32, N4-(3,4-Dihydro-2,2-dimethyl-2H-5-pyrido[1,4]oxazin-6-yl)-5-fluoro-N2-[4-methoxy-3-(N-methylaminocarbonylmethoxy)phenyl]-2,4-pyrimidinediamine]
	223 nM	56.4 nM	CNC(=O)COc1cccc(Nc2ncc(C)c(Nc3ccc4c(c3)N(C)C(=O)CS4)n2)c1 [II-8, 5-Methyl-N2-[3-(N-methylaminocarbonylmethyleneoxy)phenyl]-N4-(4-methyl-3-oxo-2H-benzo[1,4]thiazin-6-yl)-2,4-pyrimidinediamine]
	489 nM	75.2 nM	CNC(=O)COc1cc(Nc2ncc(F)c(Nc3ccc4c(n3)NCC(C)(C)O4)n2)cc(OC)c1OC [II-33, N4-(3,4-Dihydro-2,2-dimethyl-4H-5-pyrido[1,4]oxazin-6-yl)-N2-[3,4-dimethoxy-5-(N-methylaminocarbonylmethoxy)phenyl]-5-fluoro-2,4-pyrimidinediamine]
	1640 nM	180 nM	N2-(3-Aminocabonylphenyl)-N4-(3,4-dihydro-2H-4-methyl-3-oxo-5-pyrido[1,4]oxazin-6-yl)-2,4-pyrimidinediamine [II-42]
	492 nM	80.2 nM	CNC(=O)COc1cccc(Nc2ncc(C)c(Nc3ccc4c(c3)N(C)C(=O)C(F)(F)O4)n2)c1 [II-37, N4-(2,2-Difluoro-4-methyl-3-oxo-4H-benzo[1,4]oxazin-6-yl)-5-methyl-N2-[3-(N-methylaminocarbonylmethyleneoxy)phenyl]-2,4-pyrimidinediamine]
